{"source": "patent US20180353461A1", "about": "“USE OF CANNABINOIDS AS CERAMIDE-GENERATING ANTICANCER AGENTS IN TUMORS OF THE HEMATOPOIETIC AND LYMPHOID TISSUES” (priority 2014, published 2018)", "format_in_all_cases": "cell-based, human", "key": {"U266 cells [1]": {"system": "U266 cells", "experiment": "Western blot of ER-stress regulator proteins in U266 cells", "details": "U266, WIN-55 50 uM", "protocol": "Samples (15-25 ug/lane) were subjected to SDS/PAGE in pre-cast polyacrylamide gels AnykD (Bio-Rad Laboratories, Hercules, CA, USA) under reducing and denaturing conditions. Electrophoretic run was performed at a constant current of 15 mA per gel in a Mini-Protean® Tetra Cell (Bio-Rad Laboratories). Once proteins were separated by electrophoresis, were transferred onto PVDF membranes using Trans-Blot® Turbo™ System (Bio-Rad Laboratories). Electrotransference was conducted at constant amperage of 1.2 mA and at up to 25 V of voltage. The blotted membranes were then blocked with 2% bovine serum albumin [(BSA), Santa Cruz Biotechnology] in Tween-Tris buffer saline (TTBS) for 30 min with gentle agitation, and incubated overnight at 4° C. with corresponding primary antibody in TTBS. After twice washing with TTBS, membranes were incubated for 1-2 h at room temperature with suitable conjugated-HRP secondary antibody, and subjected to chemiluminescence detection using Western Blotting Luminol Reagent (Santa Cruz Biotechnology). Loading controls were carried out with an anti-beta-actin and anti-beta-tubulin antibodies (Sigma-Aldrich). […]\nCannabinoids attenuate the response to ER-stress in myelomatous cells. […] To test the effect of cannabinoids on ER-stress we analyzed the expression profile of ER-stress related proteins in myelomatous cells."}, "U266 cells [2]": {"system": "U266 cells", "experiment": "Mitochondrial transmembrane potential (TMRE assay) in U266 cells", "protocol": "The loss of mitochondrial transmembrane potential (Δψm), a marker of early apoptotic events, was determined by staining with TRME [(tetramethylrhodamine-ethyl-ester-perchlorate), Santa Cruz Biotechnology Inc.]. TMRE is a cell-permeable dye that becomes fluorescent once it is inside the mitochondria and, it can be detected using a fluorescent plate reader (Tecan). Briefly, cells (10e6 cells per assay) were treated with different concentrations of WIN-55 in presence or absence of SPT-inhibitor for 15, 30, 45 and 60 min at 37° C. After washing twice, cells were incubated for 20 min at 37° C. in the dark with 1 uM TMRE. The fluorescent intensity was read in the plate reader with excitation and emission wavelengths set at 485 and 538 nm respectively for red fluorescence. For each condition, triplicate samples (at least five times) were run, fluorescent readings were corrected for background. In all assays, CCCP (2-[2-(3-Chlorophenyl) hydrazinylyidene] propanedinitrile, a potent mitochondrial uncoupler, was used as a positive control of mitochondrial potential status.\nThe early loss of mitochondrial-membrane potential induced by cannabinoids. To delve into the processes that participate in cannabinoid-induced apoptosis, finally we tested whether the cannabinoid treatment induces changes on Δψm in myelomatous cells. We observed that cannabinoids induced a drop of Δψm in U266 cells (FIG. 10). […]"}, "HL60 cells [3]": {"system": "HL60 cells", "experiment": "Western blot time course of apoptotic proteins in HL60 cells", "protocol": "Protein analyses were performed by Western blot in several sets of assays: expression pattern of CBs-receptors in AML cell lines and primary cells, and time course after treatment with cannabinoids in AML cell lines.\nCells were solubilized with ice-cold lysis buffer containing 2% ASB-14 (CalbioChem, San Diego, Calif., USA), 1% Nonidet P-40 (Ipegal®), 137 mM NaCl, 20 mM Tris-HCl pH 7.5 at 4° C. (all from Sigma-Aldrich), 2 mM Na3VO4, 20 mM NaF (New England BioLabs Inc., Ipswich, Mass., USA), 2 mM DTT (AppliChem, Darmstadt, Germany), protease inhibitor cocktail (Roche Diagnostics GmbH, Mannheim, Germany), and 10 ul Nuclease Mix (Amersham GE Healthcare, Uppsala, Sweden). Insoluble materials were removed by centrifugation at 13,000×g for 15 min at 4° C. Protein content was determined by Pierce® Microplate BCA Protein Assay kit-Reducing Agent Compatible (Thermo Fisher Scientific).\n(§1) Extracted proteins (15-25 ug/well) were separated by sodium dodecyl sulfate-polyacrylamide gel electrophoresis (SDS/PAGE) in pre-cast polyacrylamide gels AnykD (Bio-Rad Laboratories, Hercules, Calif., USA) under reducing and denaturing conditions. Electrophoretic run was performed at a constant current of 15 mA per gel in a Mini-Protean® Tetra Cell (Bio-Rad Laboratories) and were electrophoretically transferred onto PVDF membranes using Trans-Blot® Turbo™ System (Bio-Rad Laboratories). Blocking was performed with 2% bovine serum albumin [(BSA), Santa Cruz Biotechnology] in Tween-Tris buffer saline (TTBS). Membranes were incubated overnight at 4° C. with corresponding primary antibody in TTBS.\nDetection was performed using Western Blotting Luminol Reagent (Santa Cruz Biotechnology).\nAs in the case of MM cells, the antiproliferative effect of cannabinoids in AML is mediated by apoptotic mechanisms. […] Next, we evaluated Casp-3 activation using an antibody that recognizes the active forms of Casp-3, this is, the […]. […]"}, "HL60 cells [4]": {"system": "HL60 cells", "experiment": "Western blot of ER-stress regulator proteins in HL60 cells", "details": "HL60, WIN-55 50 uM", "protocol": "FIG. 19. […] Expression analysis by Western blot of regulator proteins of ER-stress in HL60 cells treated with WIN-55 50 uM.\nas §1"}}}
{"compound": "CS(=O)(=O)O.Cc1c(C(=O)c2cccc3ccccc23)c2cccc3c2n1[C@H](CN1CCOCC1)CO3", "note": "[WIN-55, (R)-(+)-[2,3-dihydro-5-methyl-3-(4-morpholinylmethyl)-pyrrolo-[1,2,3]-1,4-benzoxazin-6-yl]-1-naphthalenylmethanone mesylate]", "values": [{"measurement": "response to ER-stress: expression of CHOP, ATF-4, p-IRE1", "setting": "U266 cells [1]", "value": "attenuates the response to ER-stress"}, {"measurement": "mitochondrial membrane potential (Δψm)", "setting": "U266 cells [2]", "value": "early loss of potential of mitochondrial membrane"}, {"measurement": "full-length PARP", "setting": "HL60 cells [3]; HL60, WIN-55 50 uM, time course", "value": "decrease"}, {"measurement": "85 kDa fragment of PARP", "setting": "HL60 cells [3]; HL60, time course", "value": "increase"}, {"measurement": "expression of the active 12 kDa-cleaved form of Casp-3", "setting": "HL60 cells [3]; HL60, time course", "value": "increased over time"}, {"measurement": "ER-stress in AML cells", "setting": "HL60 cells [4]", "value": "increase the ER-stress"}]}
